Experimental data published in US20040162467A1, “Non-invasive transudate extraction” (priority 2001, published 2004).

Legend:
[1] = Other analytes: transdermal collection levels versus serum levels
[2] = Serum, transdermal and saliva samples from human subjects before, during and after exercise; conditions: for Saliva: 30-min saliva lag; for Exudate: transdermal
Method: (§1) Sodium lauryl sulfate (40%) and either a commercial ultrasound conductive gel (Aquasonic, Parker Lab., NJ 07004, USA) or a 10% ethanol gel (the two gels were alternated in use) are employed. These gels are designated SLS-UG and SLS-EG respectively herein. Collected SLS-UG and SLS-EG are assayed as for blood. Saliva was divided into two samples. The first sample is stored at −20° C. and assayed as for blood. The second sample is assayed at the time of experimentation using the apparatus and immunosensors described above.
(§2) Student t tests, ANOVA or Wilcoxon test for paired samples are made as appropriate. Statistical significance is taken at P≦0.05 level. For analysis across the exercise stress, data is grouped into pre, during and post exercise values as actual sample times relative to the exercise for transdermal and blood obtained values. For pre, during and post exercise grouping of saliva samples, a 20-min lag was allowed relative to blood and transdermal values in sheep and a 30-min lag in human subjects.
Ten human volunteers (males aged 19-23, body weights 85-103 kg) were seated at 09:30 h. During the experiment, they were held at a room temperature of 20-22° C. An initial 1 min burst of ultrasound, as for the sheep (above), was made on the volar surface of the forearm, following application of SLS-EG mix. Ten minutes later, transdermal (electrosonophoresis) collection began from this site on this forearm, simultaneous to a venepuncture blood collection being made from the other. A saliva collection was then made, followed by a second, third and fourth saliva collection 20, 30 and 40 min after the blood sample. These measurements were repeated three times over 3 h (i.e. a total of three blood and transdermal samples and 12 saliva samples). In between each sampling series, subjects were allowed to walk around, eat lightly and drink water. Following this collection, the five volunteers exercised at moderate intensities, for 40 min (heart rates maintained in the range of 130-160 bpm) on a rowing machine, stopping briefly at 10, 20 and 30 min to give blood, transdermal and saliva samples. The subjects gave another set of samples at 40 min upon completion of rowing, then warmed down lightly with stretching exercises for a further 10 min and gave a further saliva sample at the end of this time. Two more saliva samples were collected at 60 and 70 min after exercise started. At the end of this time, sampling was repeated as above, prior to exercise, for a further 3 h. The entire procedure was repeated twice a week for 3 weeks (a total of six times). The distance rowed (m) represented the total work rate during the exercise.

[3] = Serum, transdermal and saliva samples from sheep before, during and after exercise; conditions: for Saliva: 20-min saliva lag; for Exudate: transdermal
Method: as §1, §2
In the remaining 10 sheep, experimentation took place on three separate days, each 3 days apart. On days of experimentation, animals were penned as above and the jugular vein of the animal was catheterised. Animals were left to rest for 50 min and then a single ultrasound application applied for 1 min as above. […] A series of electrosonophoresis collections were made concurrently with blood collection from the jugular vein, every 5 min for a further 1 h. Saliva samples were collected on every second blood sample (i.e. every 10 min). At completion of this time, a human shepherd, intermittently for 30 min, then ran the animals around a paddock. During this 30 min, each animal was briefly restrained manually and sampled on all three parameters every 10 min (i.e. three samples repeated three times). At the end of this period, animals were repenned and rested for 10 min, and a further saliva collection was made. Following this saliva collection for a further 1-h period, collection as above, prior to exercise, was repeated. In this manner for each animal, in each session, 27 blood and transdermal samples and 16 saliva samples were collected.

[4] = Concentrations in transdermal exudate collected by different formats from sheep, versus serum; conditions: in vivo
Method: as §1
Ten of these animals were used to develop the transdermal exudate collection technique. These 10 animals were penned as above, and a catheter inserted into the jugular vein using known techniques in the art. A mixture of sodium lauryl sulfate and either SLS-UG or SLS-EG was positioned onto the shaved area on the back of each animal. […] At the end of the hour, the remaining mix on the back was collected. The entire procedure was repeated three times. This mix was subject to assay (see below) for hormones and glucose content.
On the following day, one of the two gel mixes were rubbed on and, after 10 min, ultrasound (20 kHz, 10 W/cm^2, pulsed 5 s on/5 s off using an ITO Physiotherapy and rehabilitation unit, Tokyo 176-8605, Japan) applied for 1 min directly onto the mix. Ten minutes later, the mix was again collected and measured. This was then repeated with 2 min of the ultrasound application, and on a following day, the entire procedure repeated using the alternative gel mix on the shaved patch on the animal. Times greater than 2 min were not attempted due to potential risk of skin damage. Blood samples were collected at the time of ultrasound application and again at the time when the gel mix was also collected. The entire ultrasound procedure was then repeated on subsequent days with the addition of an application of a 9V electric field either side of the ultrasound head (in contact with skin).
On a separate day, in a further repeat of the above procedure; the collecting head (50) was positioned onto the ultrasound device. The ultrasound device was modified to ensure good coupling for use with the collecting head and delivery of needed parameters to the skin. The output of the device was reset to achieve the same energy and pulse delivery to the skin's surface as when the collecting head was not present, and the ultrasound device had been placed directly in contact with the gels (as described above). Three fluid flow rates into the collection chamber of the head were compared: 150, 300 and 600 μl/min. The effluent fluid was then assayed. On a final day, this was then repeated with the immunosensors positioned in the exit line from the chamber, with immunosensor measurement of the hormones made as has been described above.

[5] = first group of subjects (no condition given)
[6] = second group of subjects (no condition given)
[7] = second group: females pregnant and lactating

## Cn1c(=O)c2c(ncn2C)n(C)c1=O [Caffeine]
[1]; [5]
  Serum levels: 1 to 5 mg/mL
  Transdermal collection levels: 0.2 to 0.8 mg/mL
[1]; second group (loading)
  Serum levels: 4 to 14 mg/mL (loading)
  Transdermal collection levels: 0.3 to 1.5 mg/mL

## C[C@]12CC[C@@H]3c4ccc(O)cc4CC[C@H]3[C@@H]1CC[C@@H]2O [Estradiol, 17-β estradiol]
[2]; 0 min Exercise
  Saliva: 0.76 ± 0.38 ng/L
  Exudate: 1.53 ± 0.59 ng/L
[2]; 10 min Exercise
  Saliva: 0.75 ± 0.51 ng/L
  Exudate: 1.47 ± 0.94 ng/L
[2]; 20 min Exercise
  Saliva: 0.83 ± 0.39 ng/L
  Exudate: 1.74 ± 0.54 ng/L
[2]; 30 min Exercise
  Saliva: 0.85 ± 0.22 ng/L
  Exudate: 2.14 ± 0.86 ng/L
[2]; 40 min Exercise
  Saliva: 0.68 ± 0.26 ng/L
  Exudate: 1.53 ± 0.51 ng/L
[2]; Postexercise
  Saliva: 0.45 ± 0. ng/l
  Exudate: 1.11 ± 0.55 ng/L
[2]; Preexercise
  Saliva: 0.71 ± 0.25 ng/L
  Exudate: 1.23 ± 0.46 ng/L
[3]; 10 min Exercise
  Serum: 1.5 ± 1.1 mg/L
  Saliva: 0.038 ± 0.011 mg/L
  Exudate: 0.14 ± 0.08 mg/L
[3]; 20 min Exercise
  Serum: 1.3 ± 1.1 mg/L
  Saliva: 0.046 ± 0.009 mg/L
  Exudate: 0.12 ± 0.07 mg/L
[3]; 30 min Exercise
  Serum: 1.5 ± 1.3 mg/L
  Saliva: 0.03 ± 0.012 mg/L
  Exudate: 0.14 ± 0.09 mg/L
[3]; Postexercise
  Serum: 2.2 ± 1.1 mg/L
  Saliva: 0.052 ± 0.021 mg/L
  Exudate: 0.20 ± 0.06 mg/L
[3]; Preexercise
  Serum: 1.4 ± 1.2 mg/L
  Saliva: 0.05 ± 0.03 mg/L
  Exudate: 0.12 ± 0.06 mg/L
[4]
  Recovery as % of serum levels: 1%

## CCO [Ethanol, ethanol]
[1]; [5]
  Serum levels: 0.01 to 0.9 mg/mL
  Transdermal collection levels: 0.02 to 0.08 mg/mL
[1]; second group (loading)
  Serum levels: 0.4 to 1.4 mg/mL (loading)
  Transdermal collection levels: 0.05 to 0.11 mg/mL

## CC(=O)[C@H]1CC[C@H]2[C@@H]3CCC4=CC(=O)CC[C@]4(C)[C@H]3CC[C@]12C [Progesterone]
[1]; [5]
  Serum levels: 1e-06 to 1.2e-05 mg/mL
  Transdermal collection levels: 2e-07 to 1.1e-06 mg/mL
[1]; [6]
  Serum levels: 8e-06 to 2.5e-05 mg/mL
  Transdermal collection levels: 5e-07 to 2.8e-06 mg/mL

## CN[C@@H](C)[C@@H](O)c1ccccc1 [Pseudoephedrine, reference compound]
[1]; [5]
  Serum levels: 0.001 to 0.008 mg/mL
  Transdermal collection levels: 0.0002 to 0.0008 mg/mL
[1]; [7]
  Serum levels: 4-25 μg/ml females
  Transdermal collection levels: 0.0004 to 0.0021 mg/mL
